According to the CheMixHub drug solubility set:

Assay: xn = mol fraction of the nth substance listed, in the solute-free solvent

Nc1nc2ccc(OC(F)(F)F)cc2s1 + CCCO + O
solubility (g/100 g solution)
Settings	278.15 K	283.15 K	288.15 K	293.15 K	298.15 K	303.15 K	308.15 K	313.15 K	318.15 K	323.15 K
x2 = 0.1138	11.3	12.7	13.8	14.7	15.4	16.1	16.7	17.1	17.7	18.2
x2 = 0.1666	19.6	21.1	22.3	23.1	24	24.9	25.7	26.4	27.5	28.6
x2 = 0.2306	33.4	34.7	35.8	37.2	38.1	39.2	40.1	40.9	41.9	42.8
x2 = 0.3103	39.9	40.9	42.4	43.4	45	46.2	47.9	49.2	50.6	52.4
x2 = 0.4116	53.3	56.1	58.5	60.7	63	64.6	66.3	67.6	68.7	69.7
x2 = 0.5454	54.6	56.3	57.9	59.9	61.7	63.6	65.3	66.6	67.9	68.7
x2 = 0.7292	48.8	50.6	52.6	54.6	56.6	58.2	60.2	61.6	63.1	64

c1ccc(-c2ccc(C(c3ccccc3)n3ccnc3)cc2)cc1 (stereo not drawn) + CCCO + O
solubility (g/100 g solution)
Settings	278.15 K	283.15 K	288.15 K	293.15 K	298.15 K	303.15 K	308.15 K	313.15 K	318.15 K
x2 = 0.03225	0.0336	0.0464	0.0633	0.0834	0.101	0.139	0.185	0.229	0.288
x2 = 0.06974	0.0833	0.114	0.154	0.202	0.244	0.332	0.436	0.54	0.674
x2 = 0.1139	0.174	0.22	0.295	0.402	0.547	0.719	0.918	1.13	1.35
x2 = 0.1666	0.308	0.417	0.558	0.724	0.884	1.18	1.52	1.9	2.34
x2 = 0.2307	0.467	0.573	0.784	1.06	1.3	1.74	2.22	2.82	3.53
x2 = 0.3103	0.618	0.836	1.12	1.45	1.81	2.37	3.04	3.83	4.72
x2 = 0.4117	0.601	0.91	1.27	1.77	2.4	3.06	3.87	4.77	5.68
x2 = 0.5454	0.774	1.05	1.42	1.86	2.37	3.09	3.98	5.09	6.3
x2 = 0.7297	0.768	1.11	1.56	2.08	2.68	3.46	4.32	5.36	6.55

CCOc1ccccc1C(N)=O + CCO + CC#N
solubility (g/100 g solution)
Settings	x2 = 0.1	x2 = 0.2	x2 = 0.3	x2 = 0.4	x2 = 0.5	x2 = 0.6	x2 = 0.7	x2 = 0.8	x2 = 0.9
293.15 K	3.67	4.64	5.5	6.13	6.78	6.6	6.09	5.58	4.95
298.15 K	4.87	5.98	7.15	7.99	8.56	8.45	7.95	7.21	6.29
303.15 K	6.28	7.75	8.84	9.86	10.4	10.1	9.58	8.65	7.54
308.15 K	8.19	9.9	11.3	12.4	13.1	13	12.2	11	9.7
313.15 K	10.5	12.4	14.4	15.7	16.2	16	15	13.7	11.8
318.15 K	13.3	15.6	17.7	19.2	19.9	19.5	18.3	16.5	14.7

COC(=O)C(N)CS.Cl (stereo not drawn) + CCO + ClCCl
solubility (g/100 g solution)
Settings	x2 = 0.05	x2 = 0.1	x2 = 0.2	x2 = 0.3	x2 = 0.4	x2 = 0.5	x2 = 0.6	x2 = 0.7	x2 = 0.8	x2 = 0.9
283.15 K	0.323	0.991	1.88	2.62	3.2	3.86	4.64	5.33	6.02	6.92
288.15 K	0.362	1.02	2.21	3.14	3.93	4.46	5.07	5.91	6.77	7.59
293.15 K	0.393	1.21	2.46	3.54	4.26	5.23	5.88	6.62	7.47	8.49
298.15 K	0.43	1.4	2.7	4.09	4.98	5.89	6.66	7.51	8.75	9.98
303.15 K	0.493	1.42	3.03	4.65	5.72	6.77	7.79	8.77	10.3	11.9

CC1CCC2C(C)C(OC(=O)CCC(=O)O)OC3OC4(C)CCC1C32OO4 (stereo not drawn) + CCO + O
solubility (g/100 g solution)
Settings	278.15 K	283.15 K	288.15 K	293.15 K	298.15 K	303.15 K	308.15 K	313.15 K	318.15 K
x2 = 0.04179	0.113	0.146	0.183	0.23	0.279	0.348	0.427	0.517	0.627
x2 = 0.08949	0.369	0.462	0.563	0.69	0.817	0.994	1.19	1.41	1.66
x2 = 0.1436	0.816	0.995	1.19	1.43	1.66	1.97	2.32	2.69	3.12
x2 = 0.2067	1.38	1.65	1.94	2.29	2.62	3.07	3.55	4.06	4.64
x2 = 0.2813	1.97	2.33	2.69	3.13	3.56	4.1	4.66	5.26	5.94
x2 = 0.3699	2.54	2.92	3.37	3.87	4.36	4.95	5.59	6.25	6.96
x2 = 0.4771	3.08	3.48	3.92	4.47	5.03	5.67	6.34	7.03	7.74
x2 = 0.6102	3.61	4.02	4.51	5.11	5.67	6.29	6.98	7.63	8.37
x2 = 0.7797	4.05	4.46	4.95	5.55	6.12	6.72	7.39	8.06	8.72

CCOC(=O)OC1=C(c2cc(C)ccc2C)C(=O)NC12CCC(OC)CC2 (stereo not drawn) + CCO + O
solubility (g/100 g solution)
Settings	278.15 K	283.15 K	288.15 K	293.15 K	298.15 K	303.15 K	308.15 K	313.15 K	318.15 K
x2 = 0.2	0.0705	0.151	0.226	0.365	0.51	0.748	1.02	1.33	1.82
x2 = 0.4	1.44	1.85	2.31	2.96	3.91	5.06	6.59	8.52	11.1
x2 = 0.6	2.83	3.59	4.57	5.78	7.18	9.11	11.5	14.3	17.8
x2 = 0.8	3.14	3.95	4.97	6.19	7.77	9.63	12	15	18.7

Cc1nc2n(c(=O)c1CCN1CCC(c3noc4cc(F)ccc34)CC1)CCCC2 + CCO + O
solubility (g/100 g solution)
Settings	278.15 K	283.15 K	288.15 K	293.15 K	298.15 K	303.15 K	308.15 K	313.15 K
x2 = 0.1436	0.173	0.214	0.262	0.329	0.397	0.487	0.592	0.73
x2 = 0.2069	0.628	0.744	0.919	1.1	1.4	1.68	2.06	2.58
x2 = 0.2812	1.72	2.03	2.47	2.94	3.58	4.32	5.34	6.64
x2 = 0.3627	3.31	3.98	4.66	5.53	6.67	8.06	9.77	12
x2 = 0.4768	4.74	5.58	6.59	7.76	9.19	11	13.2	15.9
x2 = 0.6101	4.86	5.65	6.62	7.77	9.18	10.8	12.9	15.2
x2 = 0.779	3.01	3.56	4.18	4.97	5.91	7.06	8.5	10.1

Nc1nc2ccc(OC(F)(F)F)cc2s1 + CCO + O
solubility (g/100 g solution)
Settings	278.15 K	283.15 K	288.15 K	293.15 K	298.15 K	303.15 K	308.15 K	313.15 K	318.15 K	323.15 K
x2 = 0.2068	16	19.7	23.8	26.5	32.5	38.3	43.3	47.4	51.7	55.5
x2 = 0.2812	31.4	35.5	39.9	43.9	48.1	52.1	56.1	59.6	62.5	64.8
x2 = 0.3697	56.3	58.7	60.7	63.2	65.5	67.8	69.7	70.9	72.7	74
x2 = 0.4772	50.7	53.3	55.4	58.1	60.6	63.6	66	68	69.9	71.4
x2 = 0.6099	53.2	55.1	57.4	59.7	61.7	63.6	65.3	67	68.6	69.9
x2 = 0.7786	52.6	54.4	57.2	59	61.3	63.1	64.9	66.7	68.2	70

O=C(NC(C(=O)O)c1ccccc1)OCc1ccccc1 (stereo not drawn) + CCO + O
solubility (g/100 g solution)
Settings	x2 = 0.1	x2 = 0.2	x2 = 0.3	x2 = 0.4	x2 = 0.5	x2 = 0.6	x2 = 0.7	x2 = 0.8	x2 = 0.9
283.15 K	0.0534	0.628	1.49	2.83	4.36	6.29	8.19	11.1	11.8
293.15 K	0.0958	0.786	2.21	4.37	6.76	9.75	13.4	17.7	18.1
303.15 K	0.153	1.18	3.44	7.93	12.3	17.6	21.9	26.9	27.3
313.15 K	0.239	1.91	6.85	13.9	22.6	29.6	35.5	39.3	40.2
323.15 K	0.396	3.17	12.7	24	37.5	45.5	49.1	51.8	52.6
